In article PMC8016166, “Identification of a Potent and Selective 5-HT1A Receptor Agonist with In Vitro and In Vivo Antinociceptive Activity” (ACS Chemical Neuroscience, 2020):

Tests used:
[1] = system: superficial dorsal horn neurons (lamina I–II); assay: Patch-clamp recording from spinal cord slices; type: cell-based, mouse
Method: The Italian Ministry of Health approved all the experiments that were conducted on postnatal CD1 mice (P18–P25) in accordance with the Guide for the Care and Use of Laboratory Animals and the EU and Italian regulations on animal welfare. The spinal cord slices were obtained following the procedure described previously.[69],[70] Briefly, the animals were anesthetized with isoflurane and decapitated, the spinal cord and vertebrae were rapidly removed and placed in ice-cold dissecting Krebs’ solution (composition in mM:125 NaCl, 2.5 KCl, 1.25 NaH2PO4, 26 NaHCO3, 25 glucose, 6 MgCl2, 1.5 CaCl2, and 1 kynurenic acid, pH 7.4, 320 mOsm), bubbled with 95% O2, 5% CO2. The lumbar spinal cord was isolated, embedded in an agarose block (low melting point agarose 3%, Thermo Fisher Scientific, Waltham, USA), and transverse slices (500 μm thick) were obtained using a vibrating microtome (WPI, Sarasota, USA). The slices were incubated in oxygenated incubation Krebs’ solution (the same as dissecting but without kynurenic acid) at 35 °C for 30 min and used for recording. The Patch-clamp recording in whole-cell configuration was performed on lamina I–II neurons at room temperature. The slices were perfused at 2 mL/min with recording Krebs’solution (in mM: 125 NaCl, 2.5 KCl, 1.25 NaH2PO4, 26 NaHCO3, 25 glucose, 1 MgCl2, and 2 CaCl2, pH 7.4, 320 mOsm). Recordings of post-synaptic currents (EPSCs) were performed in voltage clamp, by using an intracellular solution with the following composition (in mM): 120 potassium methanesulfonate, 10 NaCl, 10 EGTA, 1 CaCl2, 10 HEPES, 5 ATP-Mg, pH adjusted to 7.2 with KOH, osmolarity 300 mOsm. 8-OH-DPAT was obtained from Sigma-Aldrich (Saint Louis, USA). The data were recorded and acquired using a Multiclamp 700A amplifier and the pClamp 10 software (Molecular Devices, Sunnyvale, USA). The sampling rate was 10 kHz, and the data were filtered at 2 kHz. The data were analyzed off-line using pClamp10 software and Minianalysis (Synaptosoft, USA). The data are expressed as the mean ± SEM and differences were considered significant for p < 0.05. The statistical significance for the effect on EPSC frequency was determined using the Kolmogorov–Smirnov test on individual neurons.

5-HT1AR [2] = biological target: T1, 5-HT1AR (Rattus norvegicus, UniProt P19327); assay: [35S]GTPγS functional 5-HT1A assay in rat hippocampal membranes; type: biochemical; settings: read-out: 5-HT1A Emax (%) ± SEM
T1 construct: from tissue; hippocampus per the main-text methods
T1 sequence (P19327 1-422): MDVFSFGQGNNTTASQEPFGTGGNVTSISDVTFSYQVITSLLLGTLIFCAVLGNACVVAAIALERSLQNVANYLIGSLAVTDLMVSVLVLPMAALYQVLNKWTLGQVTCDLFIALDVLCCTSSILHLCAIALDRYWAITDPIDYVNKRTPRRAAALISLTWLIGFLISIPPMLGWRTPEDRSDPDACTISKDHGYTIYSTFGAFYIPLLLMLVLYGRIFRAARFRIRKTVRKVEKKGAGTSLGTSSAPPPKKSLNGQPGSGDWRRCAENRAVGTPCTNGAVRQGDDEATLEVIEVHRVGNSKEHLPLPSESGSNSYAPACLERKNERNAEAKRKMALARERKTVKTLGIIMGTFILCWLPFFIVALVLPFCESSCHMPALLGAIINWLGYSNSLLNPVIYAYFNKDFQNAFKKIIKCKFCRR
Method: (§1) Male Sprague–Dawley rats were decapitated and their brains removed and placed on ice. The hippocampi (for the functional 5-HT1A receptor assay) or frontal cortexes (for the competitive 5-HT2A and 5-HT2C receptor assays) were dissected and homogenized with a glass homogenizer in 30 vol. ice-cold TED buffer (50 mMTris-HCl, 1 mM EDTA, 1 mM dithiotheritol, pH 7.4). Next, the homogenate was centrifuged at 21 000g for 30 min at 4 °C. The pellet was suspended in 30 vol TED buffer (pH 7.4) and incubated in a water bath for 10 min at 37 °C to remove endogenous ligands. The suspension was centrifuged again at 21 000g for 30 min at 4 °C. The pellet was resuspended in 30 vol TED buffer (pH 7.4) and the centrifugation step was repeated. The final pellet was suspended in 10 vol 50 mM Tris-HCl (pH 7.4) and stored at −80 °C until use.[47]
(§2) The [^35S]GTPγS assay was performed according to the method described previously.[49] […] Nonspecific binding was determined with 100 μM of unlabeled GTPγS. The reaction mixture was incubated for 90 min at 36 °C in a volume of 250 μL. […] Next, 96-well Unifilter Plates (PerkinElmer, USA) were presoaked for 1 h with 50 mM Tris-HCl (pH = 7.4) before harvesting. The reaction was terminated by vacuum filtration onto filter plates with the Filter Mate Harvester (PerkinElmer, USA). The samples were then rapidly washed with 2 mL of 50 mM Tris-HCl (pH = 7.4) buffer. The filter plates were dried for 2 h at 50 °C. After drying, 45 μL of EcoScint-20 scintillant (PerkinElmer, USA) was added to every well. The radioactivity was counted in a Trilux MicroBeta^2 counter (PerkinElmer, USA). The data were analyzed with GraphPad Prism 5.0 software (GraphPad Software, San Diego California USA, www.graphpad.com). To determine whether compound-stimulated [^35S]GTPγS binding involved 5-HT1A receptors, two protocols were used.
The curves were fitted with a one-site nonlinear regression model. Efficacy (Emax) and potency (pEC50) were calculated from […] from three separate experiments and expressed as the means ± SEM. […] The differences in compound potency and efficacy were evaluated with one-way ANOVA followed by the Bonferroni’s post-hoc test. The baseline G-protein stimulation was set at 100%. One, two, or three symbols represent statistical significance of 0.05, 0.01, and 0.001, respectively.

5-HT1AR [3] = biological target: T1, 5-HT1AR; assay: Effect of WAY100635 on compound-stimulated [35S]GTPγS binding (Tables SI-1, SI-2); type: biochemical
Method: as §2, with “used. […]” for “used.”
WAY).) Results were expressed as means ± SEM. Curves were fitted with a one-site sigmoidal dose-response equation […]
calculated as the ratio of pEC50 in the presence of WAY100635 divided by the pEC50 of agonist alone. Basal 5-HT1AR activation was set to 100%. Results were analyzed with one-way ANOVA followed by the Bonferroni’s post-hoc test. […]
WAY100635 (10^-10 M - 10^-5 M, WAY). Results were expressed as means ± SEM. Curves were fitted with a one-site sigmoidal dose-response equation and Emax (%) of the EC80 agonist concentration alone and in the presence of WAY100635 were determined from 2 independent experiments. Basal (no ligand added) [35S]GTPγS binding was set to 100%. Results were analyzed with one-way ANOVA followed by the Bonferroni’s post-hoc test.

Male Swiss CB1 mice = assay: Formalin test; type: in vivo, mouse
Method: Male Swiss CB1 mice (Envigo, S. Pietro al Natisone (UD)) weighing 25–30 g were used. The animals were kept at a constant room temperature (25 ± 1 °C) under a 12:12 h light and dark cycle, with free access to food and water. Each mouse was used for only one experiment. […] All the tests were performed blind to treatment.
The formalin (5%, 10 μL; Sigma-Aldrich) was injected subcutaneously into the plantar side of the right hind paw.[68] After injection, the mice were immediately placed in a plexiglas box: the total time (in seconds) spent on licking or biting the injected hind paw was recorded every 5 min at selected intervals, 0–10 (phase I) and 10–60 (phase II) min, in the different experimental groups, as an indicator of nociceptive behavior. […] A mean response was then calculated for each phase. […] A vehicle solution containing 10% DMSO was given as a control. Morphine was used as positive control. The test compound and vehicle were […] (i.p.) administered (5 mL/kg) 15 min before the formalin. […] The data are expressed as mean values (SEM). Analyses of variance (two-way repeated measures ANOVA followed by post hoc Bonferroni test) were performed to assess significance using the Instat 3.0 software (GraphPad Software, San Diego, CA). p < 0.05 was considered significant.

5-HT2CR = biological target: T2, 5-HT2CR (Rattus norvegicus, UniProt P08909); assay: Radioligand binding at 5-HT2C on rat frontal cortex membranes; settings: rat frontal cortex membranes; [3H]mesulergine
T2 construct: from tissue; host or cells: frontal cortex of male Sprague-Dawley rats
T2 sequence (P08909 33-460): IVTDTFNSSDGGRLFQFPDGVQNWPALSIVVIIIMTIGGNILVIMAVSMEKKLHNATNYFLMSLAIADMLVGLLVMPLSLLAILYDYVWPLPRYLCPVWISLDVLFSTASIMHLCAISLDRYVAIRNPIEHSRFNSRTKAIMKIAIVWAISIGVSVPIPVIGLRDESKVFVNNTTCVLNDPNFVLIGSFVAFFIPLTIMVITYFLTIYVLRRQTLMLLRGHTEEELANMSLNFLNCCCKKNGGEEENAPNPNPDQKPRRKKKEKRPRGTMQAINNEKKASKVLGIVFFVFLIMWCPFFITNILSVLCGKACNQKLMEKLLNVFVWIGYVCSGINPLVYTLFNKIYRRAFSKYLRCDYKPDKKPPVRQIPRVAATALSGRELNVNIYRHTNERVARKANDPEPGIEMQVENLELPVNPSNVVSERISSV
Method: as §1
The 5-HT2A assay was performed according to a previously described protocol with some modifications.[48] […] Nonspecific binding was determined in the presence of 10 μM mianserin. For the 5-HT2C assay, the frontal cortex homogenates (250 μg protein/mL) were incubated in triplicate with 1 nM [^3H]mesulergine for 60 min at 36 °C in a 50 mM Tris-HCl (pH 7.4) buffer containing 0.1% ascorbate, 10 mM MgCl2, 10 μM pargyline, 100 nM spiperone, and increasing concentrations (10^–10–10^–5 M) of the compound tested. After incubation, the reaction mixture was deposited onto UniFilter-96 GF/B plates, with the aid of a FilterMate-96 Harvester. The filter plates were presoaked with 0.4% PEI for 1 h. Next, each filter well was washed with 1.75 mL of 50 mM Tris-HCl (pH 7.4) and left to dry on a heating block set to 50 °C for 2 h. Then, 45 μL of Microscint-20 scintillation fluid was added to each filter well and left to equilibrate overnight. The filter-bound radioactivity was counted in a MicroBeta^2 Microplate Counter. Curves were fitted with a one-site sigmoidal dose–response equation and pKi for each compound was calculated with the Cheng-Pursoff equation. Results were analyzed with one-way ANOVA followed by the Bonferroni’s posthoc test. The results are expressed as means ± SEM of three independent experiments.

CCCN(CCC)C1CCc2cccc(O)c2C1 (stereo not drawn) [8-OH-DPAT, reference compound]
neurons showing sEPSC frequency decrease ([1]; 10 μM): 4 out of 11 | neurons showing slow outward current ([1]; bath application 10 μM, voltage clamp −60 mV): 6 out of the 11 | Emax (5-HT1AR [2]): 152 ± 2.4% | Emax (5-HT1AR [3]; read-out: Emax (%) ± SEM of EC80 agonist concentration alone): 142 ± 19.4% | Emax (5-HT1AR [3]; read-out: Emax (%) ± SEM, compound alone): 152 ± 2.4%

CN1CC[C@]23c4c5ccc(O)c4O[C@H]2[C@@H](O)C=C[C@H]3[C@H]1C5 [Morphine, reference compound]
analgesic effect in first and second phases of the formalin test (Male Swiss CB1 mice; 10 mg/kg i.p., formalin 5% 10 μL intraplantar): essentially eliminated the response to formalin

COc1cc(OC)c(C(=O)CCCCN2CCC3(CC2)NC(=O)NC3=O)cc1NS(=O)(=O)c1ccc(C(F)(F)F)cc1 [RS-102221, reference compound]
5-HT2C pKi ± SEM (5-HT2CR): 8.34 ± 0.12

COc1ccccc1N1CCN(CCN(C(=O)C2CCCCC2)c2ccccn2)CC1 [WAY-100635, reference compound]
licking response after formalin, per se (Male Swiss CB1 mice; 3 mg/kg i.p.): did not alter the licking response

NCCc1c[nH]c2ccc(O)cc12 [serotonin, reference compound]
Emax (5-HT1AR [2]; rat hippocampal membranes, basal 5-HT1AR activation set to 100%): 192 ± 4.9%
